Laboratory results from US10071995B2, “Substituted oxopyridine derivatives” (BAYER PHARMA AKTIENGESELLSCHAFT, priority 2014, dated 2018).

Assays:
[1] = target: human plasma kallikrein (Homo sapiens (Human), UniProt P03952); assay: Determination of the plasma kallikrein activity (fluorogenic peptide substrate); assay type: biochemical; details: plasma kallikrein from Kordia, substrate H-Pro-Phe-Arg-AMC, 22° C., 30 min
Protocol: (§1) To determine the plasma kallikrein inhibition of the substances according to the invention, a biochemical test system is used which utilizes the reaction of a peptidic plasma kallikrein substrate to determine the enzymatic activity of human plasma kallikrein. Here, plasma kallikrein cleaves from the peptic plasma kallikrein substrate the C-terminal aminomethylcoumarin (AMC), the fluorescence of which is measured. The determinations are carried out in microtitre plates.
1 μl of the diluted substance solutions is placed into each of the wells of white microtitre plates from Greiner (384 wells). 20 μl of assay buffer (50 mM Tris/HCl pH 7.4; 100 mM sodium chloride solution; 5 mM of calcium chloride solution; 0.1% of bovine serum albumin) and 20 μl of plasma kallikrein from Kordia (0.6 nM in assay buffer) are then added successively. After 15 min of incubation, the enzyme reaction is started by addition of 20 μl of the substrate H-Pro-Phe-Arg-AMC dissolved in assay buffer (10 μM in assay buffer) from Bachem, the mixture is incubated at room temperature (22° C.) for 30 min and fluorescence is then measured (excitation: 360 nm, emission: 460 nm). The measured emissions of the test batches with test substance are compared to those of control batches without test substance (only dimethyl sulphoxide instead of test substance in dimethyl sulphoxide), and IC50 values are calculated from the concentration/activity relationships.

[2] = target: human factor XIa (Homo sapiens (Human), UniProt P03951); assay: Measurement of FXIa inhibition (fluorogenic peptide substrate); assay type: biochemical; details: factor XIa from Kordia, substrate Boc-Glu(OBzl)-Ala-Arg-AMC, 22° C., 30 min
Protocol: as §1, with “The factor XIa” for “To determine the plasma kallikrein”, “invention is determined using” for “invention,”, “system” for “system is used”, “factor XIa” for “plasma kallikrein”, “factor XIa.” for “plasma kallikrein.”
1 μl of the diluted substance solutions is placed into each of the wells of white microtitre plates from Greiner (384 wells). […] After 15 min of incubation, the enzyme reaction is started by addition of 20 μl of the factor XIa substrate Boc-Glu(OBzl)-Ala-Arg-AMC dissolved in assay buffer (10 μM in assay buffer) from Bachem, the mixture is incubated at room temperature (22° C.) for 30 min and fluorescence is then measured (excitation: 360 nm, emission: 460 nm). The measured emissions of the test batches with test substance are compared to those of control batches without test substance (only dimethyl sulphoxide instead of test substance in dimethyl sulphoxide), and IC50 values are calculated from the concentration/activity relationships.

Sequence of human plasma kallikrein (P03952 391-638): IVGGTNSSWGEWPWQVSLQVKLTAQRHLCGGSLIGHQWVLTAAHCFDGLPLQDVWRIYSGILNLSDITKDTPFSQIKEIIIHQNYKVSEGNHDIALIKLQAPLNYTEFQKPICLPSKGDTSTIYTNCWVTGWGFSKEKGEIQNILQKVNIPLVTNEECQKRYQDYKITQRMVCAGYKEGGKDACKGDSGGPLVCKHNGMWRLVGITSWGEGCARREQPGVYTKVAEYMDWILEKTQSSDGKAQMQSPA
Sequence of human plasma kallikrein (P03952 20-390 partner): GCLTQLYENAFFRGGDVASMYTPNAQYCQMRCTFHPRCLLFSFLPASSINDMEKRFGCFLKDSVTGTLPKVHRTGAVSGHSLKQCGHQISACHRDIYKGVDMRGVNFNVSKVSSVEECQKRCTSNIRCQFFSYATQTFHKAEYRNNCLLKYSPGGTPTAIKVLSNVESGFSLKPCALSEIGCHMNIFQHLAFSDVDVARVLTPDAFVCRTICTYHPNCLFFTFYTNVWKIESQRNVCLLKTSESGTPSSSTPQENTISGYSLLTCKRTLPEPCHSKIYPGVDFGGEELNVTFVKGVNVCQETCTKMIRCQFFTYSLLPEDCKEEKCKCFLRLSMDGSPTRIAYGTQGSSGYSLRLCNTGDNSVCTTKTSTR
Sequence of human factor XIa (P03951 388-625): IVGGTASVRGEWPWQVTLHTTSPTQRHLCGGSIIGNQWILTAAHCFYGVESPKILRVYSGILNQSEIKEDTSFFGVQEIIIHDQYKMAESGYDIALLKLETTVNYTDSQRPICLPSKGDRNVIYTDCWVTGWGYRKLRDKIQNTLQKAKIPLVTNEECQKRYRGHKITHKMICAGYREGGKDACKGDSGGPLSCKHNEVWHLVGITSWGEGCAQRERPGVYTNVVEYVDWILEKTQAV
Sequence of human factor XIa (P03951 19-387 partner): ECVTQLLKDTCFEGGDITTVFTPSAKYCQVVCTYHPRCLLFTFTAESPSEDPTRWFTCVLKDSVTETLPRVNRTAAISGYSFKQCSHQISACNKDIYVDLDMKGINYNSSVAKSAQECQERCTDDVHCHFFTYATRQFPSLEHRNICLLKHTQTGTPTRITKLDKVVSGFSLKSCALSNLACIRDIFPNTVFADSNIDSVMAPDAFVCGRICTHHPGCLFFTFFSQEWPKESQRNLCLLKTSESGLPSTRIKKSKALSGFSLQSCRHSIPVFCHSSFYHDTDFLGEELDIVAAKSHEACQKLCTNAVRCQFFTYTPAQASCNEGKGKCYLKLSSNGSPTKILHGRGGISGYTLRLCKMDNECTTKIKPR

IC50 [1] [µM] | IC50 [2] [µM] | Compound
> 10 | 1.2 | COc1cn(C(Cc2ccccn2)C(=O)Nc2cc(F)c(C(N)=O)s2)c(=O)cc1-c1cc(Cl)ccc1F (racemic) [Example 6, 5-({2-[4-(5-Chloro-2-fluorophenyl)-5-methoxy-2-oxopyridin-1(2H)-yl]-3-(pyridin-2-yl)propanoyl}-amino)-3-fluorothiophene-2-carboxamide (racemate)]
0.047 | 0.027 | COCCC(C(=O)Nc1cc(F)c(C(N)=O)s1)n1cc(OC)c(-c2cc(Cl)ccc2C#N)cc1=O (single isomer, unassigned; enantiomer 1) [Example 10, 5-({2-[4-(5-Chloro-2-cyanophenyl)-5-methoxy-2-oxopyridin-1(2H)-yl]-4-methoxybutanoyl}-amino)-3-fluorothiophene-2-carboxamide (enantiomer 1)]
– | 0.0026 | COc1cn(C(Cc2ccccn2)C(=O)Nc2ccc(C(=O)O)s2)c(=O)cc1-c1cc(Cl)ccc1C#N (racemic) [Example 18, 5-({2-[4-(5-Chloro-2-cyanophenyl)-5-methoxy-2-oxopyridin-1(2H)-yl]-3-(pyridin-2-yl)propanoyl}-amino)thiophene-2-carboxylic acid (racemate)]
0.047 | 0.0069 | COCCC(C(=O)Nc1ccc(C(=O)O)s1)n1cc(Cl)c(-c2cc(Cl)ccc2C#N)cc1=O (racemic) [Example 19, 5-({2-[5-Chloro-4-(5-chloro-2-cyanophenyl)-2-oxopyridin-1(2H)-yl]-4-methoxybutanoyl}amino)-thiophene-2-carboxylic acid (racemate)]
0.1 | 0.054 | COCCC(C(=O)Nc1cc(F)c(C(N)=O)s1)n1cc(OC)c(-c2cc(Cl)ccc2C#N)cc1=O (racemic) [Example 9, 5-({2-[4-(5-Chloro-2-cyanophenyl)-5-methoxy-2-oxopyridin-1(2H)-yl]-4-methoxybutanoyl}amino)-3-fluorothiophene-2-carboxamide (racemate)]
– | 0.003 | COCCC(C(=O)Nc1ccc(C(=O)O)s1)n1cc(OC)c(-c2cc(Cl)ccc2C#N)cc1=O (racemic) [Example 7, 5-({2-[4-(5-Chloro-2-cyanophenyl)-5-methoxy-2-oxopyridin-1(2H)-yl]-4-methoxybutanoyl}amino)-thiophene-2-carboxylic acid (racemate)]
– | 0.0062 | CNC(=O)c1ccc(NC(=O)C(Cc2cnco2)n2cc(OC)c(-c3cc(Cl)ccc3C#N)cc2=O)s1 (racemic) [Example 17, 5-({2-[4-(5-Chloro-2-cyanophenyl)-5-methoxy-2-oxopyridin-1(2H)-yl]-3-(1,3-oxazol-5-yl)-propanoyl}amino)-N-methylthiophene-2-carboxamide (racemate)]
0.028 | 0.026 | COCCC(C(=O)Nc1ccc(C(N)=O)s1)n1cc(Cl)c(-c2cc(Cl)ccc2C#N)cc1=O (racemic) [Example 2, 5-({2-[5-Chloro-4-(5-chloro-2-cyanophenyl)-2-oxopyridin-1(2H)-yl]-4-methoxybutanoyl}amino)-thiophene-2-carboxamide (racemate)]
0.0016 | 0.0054 | CNC(=O)c1ccc(NC(=O)C(Cc2ccn(C)n2)n2cc(OC)c(-c3cc(Cl)ccc3C#N)cc2=O)s1 (racemic) [Example 15, 5-({2-[4-(5-Chloro-2-cyanophenyl)-5-methoxy-2-oxopyridin-1(2H)-yl]-3-(1-methyl-1H-pyrazol-3-yl)propanoyl}amino)-N-methylthiophene-2-carboxamide (racemate)]
– | 0.034 | COc1cn(C(Cc2ccccn2)C(=O)Nc2cc(F)c(C(N)=O)s2)c(=O)cc1-c1cc(Cl)ccc1C#N (racemic) [Example 3, 5-({2-[4-(5-Chloro-2-cyanophenyl)-5-methoxy-2-oxopyridin-1(2H)-yl]-3-(pyridin-2-yl)propanoyl}-amino)-3-fluorothiophene-2-carboxamide (racemate)]
0.036 | 0.029 | COc1cn(C(Cc2ccncc2)C(=O)Nc2cc(F)c(C(N)=O)s2)c(=O)cc1-c1cc(Cl)ccc1C#N (racemic) [Example 4, 5-({2-[4-(5-Chloro-2-cyanophenyl)-5-methoxy-2-oxopyridin-1(2H)-yl]-3-(pyridin-4-yl)propanoyl}-amino)-3-fluorothiophene-2-carboxamide (racemate)]
0.0015 | 0.0028 | CNC(=O)c1ccc(NC(=O)C(Cc2ccn(C)n2)n2cc(OC)c(-c3cc(Cl)ccc3C#N)cc2=O)s1 (single isomer, unassigned; enantiomer 1) [Example 16, 5-({2-[4-(5 -Chloro-2-cyanophenyl)-5-methoxy-2-oxopyridin-1(2H)-yl]-3-(1-methyl-1H-pyrazol-3-yl)propanoyl}amino)-N-methylthiophene-2-carboxamide (enantiomer 1)]
